From patent US20030078251A1, “Benzoxazepinones and their use as squalene synthase inhibitors” (priority 2000, published 2003)

Key:
[1] = biological target: T1, squalene synthase (Homo sapiens, UniProt P37268); experiment: Squalene synthase inhibiting activity (Test Example 1); type: biochemical; conditions: enzyme solution from human hepatic cancer cell HepG2; 5 μM [1-3H] farnesyl pyrophosphate, 37° C., 45 minutes; read-out: Inhibiting activity (IC50, 10^−9M)
T1 construct: endogenous in cells; host or cells: HepG2 (human hepatic cancer cells); sediment of the 105000 x g centrifugation (microsomal fraction)
T1 sequence (P37268 1-417): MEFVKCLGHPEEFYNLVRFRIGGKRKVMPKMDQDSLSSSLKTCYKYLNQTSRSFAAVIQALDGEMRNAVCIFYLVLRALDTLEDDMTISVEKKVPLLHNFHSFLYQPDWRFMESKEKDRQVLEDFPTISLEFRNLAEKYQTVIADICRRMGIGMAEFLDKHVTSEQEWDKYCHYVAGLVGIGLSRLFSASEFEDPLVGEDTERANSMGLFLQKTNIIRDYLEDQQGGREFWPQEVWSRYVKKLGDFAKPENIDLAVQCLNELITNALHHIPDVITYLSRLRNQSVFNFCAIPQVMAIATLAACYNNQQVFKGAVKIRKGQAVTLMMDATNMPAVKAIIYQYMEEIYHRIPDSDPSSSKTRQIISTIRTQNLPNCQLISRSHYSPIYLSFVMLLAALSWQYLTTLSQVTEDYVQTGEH
Description: Squalene Synthase Inhibiting Activity
The squalene synthase inhibiting activity was measured using an enzyme solution obtained according to a preparing method described below as follows:
That is, an enzyme solution (protein 0.8 μg) prepared according to the following preparing method was added to a solution containing 5 μM [1-^3H] farnesyl pyrophosphate (specific activity […]), 1 mM NADPH (reduced type nicotinamide adenine dinucleotide phosphate), 5 mM MgCl2, 6 mM glutathione, 100 mM potassium phosphate buffer (pH 7.4) and a test drug (added as an aqueous solution or DMSO solution)(total amount 50 μl), which was reacted at 37° C. for 45 minutes. 150 μl of a mixed solution of chloroform and methanol (1:2) was added to stop the reaction, and 50 μl of chloroform and 50 μl of a 3N sodium hydroxide solution were added. 50 μl of the chloroform layer (lower layer) containing the reaction product, a main component of which is squalene, and 3 ml of toluene series liquid scintillator were mixed, and the radioactivity thereof was measured by a liquid scintillation counter.
The squalene synthase inhibiting activity was shown by the concentration at which 50% of the radioactivity […] into the chloroform layer (IC50, molar concentration (M)).
Preparation of Human Enzyme Solution
Human hepatic cancer cell HepG2 (about 1×10^9 cells) was grown in Dulbecco's modified Eagle medium (37° C., in the presence of 5%CO2) containing 10% bovine fetal serum, the resulting cells were suspended in 10 ml of ice-cooled buffer [100 mM potassium phosphate buffer (pH 7.4), 30 mM nicotinamide, 2.5 mM MgCl2], and ruptured by the ultrasonication (30 seconds, 2 times). The resulting sonicate was centrifuged at 10000× g for 20 minutes (4° C.). The resulting supernatant was centrifuged at 105000× g for 90 minutes (4° C.), then the sediment was suspended in an ice-cooled 100 mM potassium phosphate buffer (pH 7.4), and centrifuged again at 105000× g for 90 minutes (4° C.). This was suspended in an ice-cooled 100 mM potassium phosphate buffer (pH 7.4) (protein concentration about 4 mg/ml), which was used as an enzyme solution.

Row | SMILES | IC50 [1] [nM] | melting point [°C]
1 | CCCS(=O)(=O)NC(=O)C[C@H]1O[C@H](c2cccc(OC)c2OC)c2cc(Cl)ccc2N(CC(C)(C)CO)C1=O [Example 2, (3R,5S)-N-propanesulfonyl-7-chloro-5-(2,3-dimethoxyphenyl)-1-(3-hydroxy-2,2-dimethylpropyl)-2-oxo-1,2,3,5-tetrahydro-4,1-benzoxazepine-3-acetamide] | 54 | 135 to 137
2 | COc1cccc([C@H]2O[C@H](CC(=O)N[C@H](C)C(=O)O)C(=O)N(CC(C)(C)C)c3ccc(Cl)cc32)c1OC [Example 18, (2R)-2-[[(3R,5S)-7-chloro-5-(2,3-dimethoxyphenyl)-1-neopentyl-2-oxo-1,2,3,5-tetrahydro-4,1-benzoxazepin-3-yl]acetyl]aminopropionic Acid] | 10 | 184 to 186
3 | COc1cccc([C@H]2O[C@H](CC(=O)NC[C@H]3CC[C@H](C(=O)O)CC3)C(=O)N(CC(C)(C)CO)c3ccc(Cl)cc32)c1OC [Example 23, trans-4-[[(3R,5S)-7-chloro-5-(2,3-dimethoxyphenyl)-1-(3-hydroxy-2,2-dimethylpropyl)-2-oxo-1,2,3,5-tetrahydro-4,1-benzoxazepin-3-yl]acetyl]aminomethyl-1-cyclohexanecarboxylic acid] | 99 | 
4 | COc1cccc([C@H]2O[C@H](CC(=O)NC[C@H]3CC[C@H](C(=O)O)CC3)C(=O)N(CC(C)(C)COC(C)=O)c3ccc(Cl)cc32)c1OC [Example 24, trans-4-[[(3R,5S)-1-(3-acetoxy-2,2-dimethylpropyl)-7-chloro-5-(2,3-dimethoxyphenyl)-2-oxo-1,2,3,5-tetrahydro-4,1-benzoxazepin-3-yl]acetyl]aminomethyl-1-cyclohexanecarboxylic acid] | 170 | 
5 | COc1cccc([C@H]2O[C@H](CC(=O)NCCc3occc3C(=O)O)C(=O)N(CC(C)(C)CO)c3ccc(Cl)cc32)c1OC [Example 26, 2-[2-[[[(3R,5S)-7-chloro-5-(2,3-dimethoxyphenyl)-1-(2,2-dimethyl-3-hydroxypropyl)-2-oxo-1,2,3,5-tetrahydro-4,1-benzoxazepin-3-yl]acetyl]amino]ethyl]furan-3-carboxylic acid] | 25 | 126 to 129
6 | COc1cccc([C@H]2O[C@H](CC(=O)NCc3ccoc3C(=O)O)C(=O)N(CC(C)(C)CO)c3ccc(Cl)cc32)c1OC [Example 30, 3-[[[[(3R,5S)-7-chloro-5-(2,3-dimethoxyphenyl)-1-(2,2-dimethyl-3-hydroxypropyl)-2-oxo-1,2,3,5-tetrahydro-4,1-benzoxazepin-3-yl]acetyl]amino]methyl]furan-2-carboxylic acid] | 9.1 | 125 to 128
7 | COc1cccc([C@H]2O[C@H](CC(=O)Nc3cccc(CCC(=O)O)c3)C(=O)N(CC(C)(C)CO)c3ccc(Cl)cc32)c1OC [Example 35, 3-[3-[[(3R,5S)-7-chloro-5-(2,3-dimethoxyphenyl)-1-(3-hydroxy-2,2-dimethylpropyl)-2-oxo-1,2,3,5-tetrahydro-4,1-benzoxazepin-3-yl]acetyl]aminophenyl]propionic Acid] | 120 | 141 to 144
8 | COc1ccc(CCC(=O)O)cc1NC(=O)C[C@H]1O[C@H](c2cccc(OC)c2OC)c2cc(Cl)ccc2N(CC(C)(C)CO)C1=O [Example 37, 3-[3-[[(3R,5S)-7-chloro-5-(2,3-dimethoxyphenyl)-1-(3-hydroxy-2,2-dimethylpropyl)-2-oxo-1,2,3,5-tetrahydro-4,1-benzoxazepin-3-yl]acetyl]amino-4-methoxyphenyl]propionic Acid] | 94 | 
9 | COc1cccc([C@H]2O[C@H](CC(=O)Nc3cc(CCC(=O)O)ccc3F)C(=O)N(CC(C)(C)CO)c3ccc(Cl)cc32)c1OC [Example 53, 3-[3-[[[(3R,5S)-7-chloro-5-(2,3-dimethoxyphenyl)-1-(3-hydroxy-2,2-dimethylpropyl)-2-oxo-1,2,3,5-tetrahydro-4,1-benzoxazepin-3-yl]acetyl]amino]-4-fluorophenyl]propionic Acid] | 40 | 151 to 152
10 | COc1cccc([C@H]2O[C@H](CC(=O)Nc3cc(CCC(=O)O)ccc3C)C(=O)N(CC(C)(C)CO)c3ccc(Cl)cc32)c1OC [Example 55, 3-[3-[[(3R,5S)-7-chloro-5-(2,3-dimethoxyphenyl)-1-(3-hydroxy-2,2-dimethylpropyl)-2-oxo-1,2,3,5-tetrahydro-4,1-benzoxazepin-3-yl]acetyl]amino-4-methylphenyl]propionic Acid] | 16 | 154 to 155
11 | COc1cccc([C@H]2O[C@H](CC(=O)Nc3cccc(CCC(=O)O)c3)C(=O)N(CC(C)(C)C)c3ccc(Cl)cc32)c1OC [Example 60, 3-[3-[[(3R,5S)-7-chloro-5-(2,3-dimethoxyphenyl)-1-neopentyl-2-oxo-1,2,3,5-tetrahydro-4,1-benzoxazepin-3-yl]acetyl]aminophenyl]propionic Acid] | 50 | 172 to 173
12 | COc1cccc([C@H]2O[C@H](CC(=O)NCc3ccc(CC(=O)O)cc3)C(=O)N(CC(C)(C)CO)c3ccc(Cl)cc32)c1OC [Example 61, 4-[[[(3R,5S)-7-chloro-5-(2,3-dimethoxyphenyl)-1-(3-hydroxy-2,2-dimethylpropyl)-2-oxo-1,2,3,5-tetrahydro-4,1-benzoxazepin-3-yl]acetyl]aminomethyl]phenylacetic acid] | 21 | 129 to 132
13 | COc1cccc([C@H]2O[C@H](CC(=O)NCc3cccc(CCC(=O)O)c3)C(=O)N(CC(C)(C)CO)c3ccc(Cl)cc32)c1OC [Example 64, 3-[3-[[[(3R,5S)-7-chloro-5-(2,3-dimethoxyphenyl)-1-(3-hydroxy-2,2-dimethylpropyl)-2-oxo-1,2,3,5-tetrahydro-4,1-benzoxazepin-3-yl]acetyl]aminomethyl]phenyl]propionic Acid] | 37 | 
14 | CCCc1cc(NC(=O)C[C@H]2O[C@H](c3cccc(OC)c3OC)c3cc(Cl)ccc3N(CC(C)(C)CO)C2=O)cc2cc(C(=O)O)oc12 [Example 163, 5-[[[(3R,5S)-7-Chloro-5-(2,3-dimethoxyphenyl)-1-(3-hydroxy-2,2-dimethylpropyl)-2-oxo-1,2,3,5-tetrahydro-4,1-benzoxazepin-3-yl]acetyl]amino]-7-propyl-1-benzofuran-2-carboxylic acid] |  | 198.5 to 199.5
15 | COc1cccc([C@H]2O[C@H](CC(=O)Nc3c(C)c(C)c4oc(C(=O)O)cc4c3C)C(=O)N(CC(C)(C)CO)c3ccc(Cl)cc32)c1OC [Example 164, 5-[[[(3R,5S)-7-Chloro-5-(2,3-dimethoxyphenyl)-1-(3-hydroxy-2,2-dimethylpropyl)-2-oxo-1,2,3,5-tetrahydro-4,1-benzoxazepin-3-yl]acetyl]amino]-4,6,7-trimethyl-1-benzofuran-2-carboxylic acid] |  | 246 to 248
16 | COc1cccc([C@H]2O[C@H](CC(=O)Nc3cc(Cl)cc4cc(C(=O)O)oc34)C(=O)N(CC(C)(C)CO)c3ccc(Cl)cc32)c1OC [Example 165, 7-[[[(3R,5S)-7-Chloro-5-(2,3-dimethoxyphenyl)-1-(3-hydroxy-2,2-dimethylpropyl)-2-oxo-1,2,3,5-tetrahydro-5,1-benzoxazepin-3-yl]acetyl]amino]-5-chloro-1-benzofuran-2-carboxylic acid] |  | 179.2 to 180.2
